Source: article PMC6911642 (Cancer research, 2019)

Legend:
[1] = target: IRE1α (Rattus norvegicus, UniProt A0A4Y1YQ52); assay: Inhibition of IRE1α RNase output; format: cell-based
[2] = target: T1, PERK (Rattus norvegicus, UniProt Q9Z1Z1); assay: Inhibition of PERK autophosphorylation; format: cell-based
T1 sequence (Q9Z1Z1 28-1108): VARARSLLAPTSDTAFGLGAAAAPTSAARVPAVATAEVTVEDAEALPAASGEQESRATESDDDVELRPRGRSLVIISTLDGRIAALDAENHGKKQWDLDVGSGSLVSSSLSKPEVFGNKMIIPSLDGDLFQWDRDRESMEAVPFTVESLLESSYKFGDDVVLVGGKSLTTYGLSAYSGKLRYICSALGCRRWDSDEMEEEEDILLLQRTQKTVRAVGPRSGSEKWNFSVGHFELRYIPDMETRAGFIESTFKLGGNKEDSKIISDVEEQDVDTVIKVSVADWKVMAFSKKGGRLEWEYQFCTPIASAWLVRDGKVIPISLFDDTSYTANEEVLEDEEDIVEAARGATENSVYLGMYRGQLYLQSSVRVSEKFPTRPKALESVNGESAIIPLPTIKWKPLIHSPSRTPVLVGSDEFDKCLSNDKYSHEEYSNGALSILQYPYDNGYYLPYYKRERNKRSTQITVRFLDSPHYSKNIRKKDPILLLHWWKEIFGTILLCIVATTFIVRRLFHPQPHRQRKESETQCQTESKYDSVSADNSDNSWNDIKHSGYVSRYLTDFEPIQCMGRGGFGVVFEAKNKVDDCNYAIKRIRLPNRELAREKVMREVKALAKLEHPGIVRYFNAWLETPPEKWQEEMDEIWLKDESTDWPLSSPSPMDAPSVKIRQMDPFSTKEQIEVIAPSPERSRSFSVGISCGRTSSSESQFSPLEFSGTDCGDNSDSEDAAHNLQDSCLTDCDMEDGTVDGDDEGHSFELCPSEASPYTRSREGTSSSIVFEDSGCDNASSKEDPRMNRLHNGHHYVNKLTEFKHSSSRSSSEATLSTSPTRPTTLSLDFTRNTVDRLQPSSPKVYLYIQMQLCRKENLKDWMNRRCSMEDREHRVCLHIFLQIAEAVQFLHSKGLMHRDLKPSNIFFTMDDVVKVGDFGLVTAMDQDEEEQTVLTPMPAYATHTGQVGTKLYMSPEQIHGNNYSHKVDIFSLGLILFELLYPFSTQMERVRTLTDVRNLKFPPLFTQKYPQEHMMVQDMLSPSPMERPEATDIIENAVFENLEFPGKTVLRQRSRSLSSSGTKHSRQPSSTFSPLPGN

Chain of IRE1α (A0A4Y1YQ52 21-977): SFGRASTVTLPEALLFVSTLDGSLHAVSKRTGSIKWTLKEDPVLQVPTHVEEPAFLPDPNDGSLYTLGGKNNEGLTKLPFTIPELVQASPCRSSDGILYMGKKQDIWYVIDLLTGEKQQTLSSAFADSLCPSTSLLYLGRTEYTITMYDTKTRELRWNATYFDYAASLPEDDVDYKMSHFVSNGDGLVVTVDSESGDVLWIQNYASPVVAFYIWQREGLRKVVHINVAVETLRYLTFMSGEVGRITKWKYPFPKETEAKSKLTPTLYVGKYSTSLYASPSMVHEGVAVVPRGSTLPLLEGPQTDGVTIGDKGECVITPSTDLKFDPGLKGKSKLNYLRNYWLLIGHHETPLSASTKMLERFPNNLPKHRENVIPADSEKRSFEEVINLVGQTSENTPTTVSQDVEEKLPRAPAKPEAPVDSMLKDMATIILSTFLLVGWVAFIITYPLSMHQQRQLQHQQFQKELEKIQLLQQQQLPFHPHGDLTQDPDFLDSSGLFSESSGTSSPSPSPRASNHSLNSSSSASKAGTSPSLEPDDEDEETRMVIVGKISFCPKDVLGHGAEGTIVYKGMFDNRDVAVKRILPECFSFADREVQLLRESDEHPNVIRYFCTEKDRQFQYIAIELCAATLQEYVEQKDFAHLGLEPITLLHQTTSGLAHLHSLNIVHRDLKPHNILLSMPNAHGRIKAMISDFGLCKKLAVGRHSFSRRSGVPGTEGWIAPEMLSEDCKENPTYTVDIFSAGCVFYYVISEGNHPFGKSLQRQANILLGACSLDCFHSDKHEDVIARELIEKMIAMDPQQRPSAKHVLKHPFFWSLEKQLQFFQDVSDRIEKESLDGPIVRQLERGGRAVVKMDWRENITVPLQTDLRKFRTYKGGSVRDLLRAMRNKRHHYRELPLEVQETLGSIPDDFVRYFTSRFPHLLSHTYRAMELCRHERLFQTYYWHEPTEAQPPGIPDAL

| IC50 [1] | IC50 [2] | Structure (SMILES) |
| --- | --- | --- |
| ~125 nM |  | Cc1ccc2c(NS(=O)(=O)c3ccccc3Cl)cccc2c1Oc1ncccc1-c1ccnc(N[C@H]2CCCNC2)n1 [KIRA8] |
|  | ~125 nM | Cc1cccc(CC(=O)N2CCc3c2ccc(-c2cn(C)c4ncnc(N)c24)c3F)n1 [GSK2656157] |
